Experimental data from patent US20250268884A1, “Deuterated Domperidone for Treating Gastroparesis” (CinDome Pharma, Inc., priority 2022, published 2025).

Tested on: adults with idiopathic or diabetic gastroparesis
Assay: Safety: adverse events, laboratory values, vital signs, Phase 2a
Details: for Any Aes, % of subjects / Any Aes, n subjects / Any TEAEs by maximum severity: Mild, % of subjects / Any TEAEs by maximum severity: Mild, n subjects / Any TEAEs by maximum severity: Moderate, % of subjects / Any TEAEs by maximum severity: Moderate, n subjects / Any TEAEs by maximum severity: Severe, % of subjects / Any TEAEs by maximum severity: Severe, n subjects / Any TEAEs leading to death, % of subjects / Any TEAEs leading to death, n subjects / Any TEAEs leading to discontinuation, % of subjects / Any TEAEs leading to discontinuation, n subjects / Any TEAEs, % of subjects / Any TEAEs, e (number of events) / Any TEAEs, n subjects / Any serious TEAEs, % of subjects / Any serious TEAEs, n subjects / Any study drug-related TEAEs by maximum severity: Mild, % of subjects / Any study drug-related TEAEs by maximum severity: Mild, n subjects / Any study drug-related TEAEs by maximum severity: Moderate, % of subjects / Any study drug-related TEAEs by maximum severity: Moderate, n subjects / Any study drug-related TEAEs by maximum severity: Severe, % of subjects / Any study drug-related TEAEs by maximum severity: Severe, n subjects / Any study drug-related TEAEs leading to discontinuation, % of subjects / Any study drug-related TEAEs leading to discontinuation, n subjects / Any study drug-related TEAEs, % of subjects / Any study drug-related TEAEs, n subjects / Any study drug-related serious TEAEs, % of subjects / Any study drug-related serious TEAEs, n subjects / subjects who experienced a TEAE: Safety Population
Experimental: Safety was evaluated through assessments of Aes, vital signs, physical examinations, clinical laboratory evaluations (including prolactin), and ECG findings. Additionally, a single, optional PGx blood sample may have been collected at any time during the subject's participation in the study.
Safety variables included Aes, clinical laboratory results (including prolactin), vital signs, ECGs, and physical examination findings.

[2H]c1c([2H])c([2H])c2c([nH]c(=O)n2CCCN2CCC(n3c(=O)[nH]c4cc(Cl)ccc43)CC2)c1[2H] [Deudomperidone, 1-{3-[4-(5-chloro-2-oxo-2,3-dihydro-1H-1,3-benzodiazol-1-yl)piperidin-1yl]propyl}-2,3-dihydro(4,5,6,7-D4)-1H-1,3-benzodiazol-2-one]
TEAE Nausea, % (10 mg BID (N = 30)): (3.3) % | TEAE Nervous system disorders, % (10 mg BID (N = 30)): (0.0) % | TEAE Palpitations, % (10 mg BID (N = 30)): (3.3) % | TEAE Sinusitis, % (10 mg BID (N = 30)): (0.0) % | TEAE Tinnitus, % (10 mg BID (N = 30)): (3.3) % | TEAE Vomiting, % (10 mg BID (N = 30)): (3.3) % | Any Aes, % of subjects (10 mg BID (N = 30)): (23.3) % | Any Aes, n subjects (10 mg BID (N = 30)): 7 | Any TEAEs by maximum severity: Mild, % of subjects (10 mg BID (N = 30)): (10.0) % | Any TEAEs by maximum severity: Mild, n subjects (10 mg BID (N = 30)): 3 | Any TEAEs by maximum severity: Moderate, % of subjects (10 mg BID (N = 30)): (6.7) % | Any TEAEs by maximum severity: Moderate, n subjects (10 mg BID (N = 30)): 2 | Any TEAEs by maximum severity: Severe, % of subjects (10 mg BID (N = 30)): (3.3) % | Any TEAEs by maximum severity: Severe, n subjects (10 mg BID (N = 30)): 1 | Any TEAEs leading to death, % of subjects (10 mg BID (N = 30)): (0.0) % | Any TEAEs leading to death, n subjects (10 mg BID (N = 30)): 0 | Any TEAEs leading to discontinuation, % of subjects (10 mg BID (N = 30)): (0.0) % | Any TEAEs leading to discontinuation, n subjects (10 mg BID (N = 30)): 0 | Any TEAEs, % of subjects (10 mg BID (N = 30)): 20.0% | Any TEAEs, e (number of events) (10 mg BID (N = 30)): 11 | Any TEAEs, n subjects (10 mg BID (N = 30)): 6 | Any serious TEAEs, % of subjects (10 mg BID (N = 30)): (0.0) % | Any serious TEAEs, n subjects (10 mg BID (N = 30)): 0 | Any study drug-related TEAEs by maximum severity: Mild, % of subjects (10 mg BID (N = 30)): (13.3) % | Any study drug-related TEAEs by maximum severity: Mild, n subjects (10 mg BID (N = 30)): 4 | Any study drug-related TEAEs by maximum severity: Moderate, % of subjects (10 mg BID (N = 30)): (0.0) % | Any study drug-related TEAEs by maximum severity: Moderate, n subjects (10 mg BID (N = 30)): 0 | Any study drug-related TEAEs by maximum severity: Severe, % of subjects (10 mg BID (N = 30)): (0.0) % | Any study drug-related TEAEs by maximum severity: Severe, n subjects (10 mg BID (N = 30)): 0 | Any study drug-related TEAEs leading to discontinuation, % of subjects (10 mg BID (N = 30)): (0.0) % | Any study drug-related TEAEs leading to discontinuation, n subjects (10 mg BID (N = 30)): 0 | Any study drug-related TEAEs, % of subjects (10 mg BID (N = 30)): (13.3) % | Any study drug-related TEAEs, n subjects (10 mg BID (N = 30)): 4 | Any study drug-related serious TEAEs, % of subjects (10 mg BID (N = 30)): (0.0) % | Any study drug-related serious TEAEs, n subjects (10 mg BID (N = 30)): 0 | subjects who experienced a TEAE (10 mg BID): 6 (20.0%) subjects (%) | TEAE diarrhoea (20 mg QD): 1 (6.7%) subjects (%) | TEAE electrocardiogram QT prolonged (20 mg QD): 2 (13.3%) subjects (%) | TEAE hypoglycaemia (20 mg QD): 1 (6.7%) subjects (%) | TEAEs reported (20 mg QD): 8 TEAEs | other TEAEs, each: constipation, dyspepsia, sinusitis, headache (20 mg QD): 1 subject each | other study drug-related TEAE: headache (20 mg QD): 1 subject each | study drug-related TEAE diarrhoea (20 mg QD): 1 (6.7%) subjects (%) | study drug-related TEAE electrocardiogram QT prolonged (20 mg QD): 2 (13.3%) subjects (%) | study drug-related TEAEs reported (20 mg QD): 4 TEAEs | subjects with study drug-related TEAEs (20 mg QD): 4 (26.7) subjects (%) | Study drug-related TEAE Abdominal pain lower, % (20 mg QD (N = 15)): (0.0) % | Study drug-related TEAE Blood creatine phosphokinase increased, % (20 mg QD (N = 15)): (0.0) % | Study drug-related TEAE Cardiac disorders, % (20 mg QD (N = 15)): (0.0) % | Study drug-related TEAE Diarrhoea, % (20 mg QD (N = 15)): (6.7) % | Study drug-related TEAE Ear and labyrinth disorders, % (20 mg QD (N = 15)): (0.0) % | Study drug-related TEAE Electrocardiogram QT prolonged, % (20 mg QD (N = 15)): (13.3) % | Study drug-related TEAE Gastrointestinal disorders, % (20 mg QD (N = 15)): (6.7) % | Study drug-related TEAE Headache, % (20 mg QD (N = 15)): (6.7) % | Study drug-related TEAE Investigations, % (20 mg QD (N = 15)): (13.3) % | Study drug-related TEAE Nausea, % (20 mg QD (N = 15)): (0.0) % | Study drug-related TEAE Nervous system disorders, % (20 mg QD (N = 15)): (6.7) % | Study drug-related TEAE Palpitations, % (20 mg QD (N = 15)): (0.0) % | Study drug-related TEAE Tinnitus, % (20 mg QD (N = 15)): (0.0) % | Subjects with any TEAEs, % (20 mg QD (N = 15)): 40.0% | Subjects with any TEAEs, e (events) (20 mg QD (N = 15)): 8 | Subjects with any study drug-related TEAE, % (20 mg QD (N = 15)): 26.7% | Subjects with any study drug-related TEAE, e (events) (20 mg QD (N = 15)): 4 | TEAE Abdominal pain lower, % (20 mg QD (N = 15)): (0.0) % | TEAE Arthralgia, % (20 mg QD (N = 15)): (0.0) % | TEAE Back pain, % (20 mg QD (N = 15)): (0.0) % | TEAE Blood creatine phosphokinase increased, % (20 mg QD (N = 15)): (0.0) % | TEAE Cardiac disorders, % (20 mg QD (N = 15)): (0.0) % | TEAE Constipation, % (20 mg QD (N = 15)): (6.7) % | TEAE Decreased appetite, % (20 mg QD (N = 15)): (0.0) % | TEAE Diarrhoea, % (20 mg QD (N = 15)): (6.7) % | TEAE Dyspepsia, % (20 mg QD (N = 15)): (6.7) % | TEAE Ear and labyrinth disorders, % (20 mg QD (N = 15)): (0.0) % | TEAE Electrocardiogram QT prolonged, % (20 mg QD (N = 15)): (13.3) % | TEAE Gastrointestinal disorders, % (20 mg QD (N = 15)): (13.3) % | TEAE Headache, % (20 mg QD (N = 15)): (6.7) % | TEAE Hypoglycaemia, % (20 mg QD (N = 15)): (6.7) % | TEAE Infections and infestations, % (20 mg QD (N = 15)): (6.7) % | TEAE Investigations, % (20 mg QD (N = 15)): (13.3) % | TEAE Metabolism and nutrition disorders, % (20 mg QD (N = 15)): (6.7) % | TEAE Musculoskeletal and connective tissue disorders, % (20 mg QD (N = 15)): (0.0) % | TEAE Nausea, % (20 mg QD (N = 15)): (0.0) % | TEAE Nervous system disorders, % (20 mg QD (N = 15)): (6.7) % | TEAE Palpitations, % (20 mg QD (N = 15)): (0.0) % | TEAE Sinusitis, % (20 mg QD (N = 15)): (6.7) % | TEAE Tinnitus, % (20 mg QD (N = 15)): (0.0) % | TEAE Vomiting, % (20 mg QD (N = 15)): (0.0) % | Any Aes, % of subjects (20 mg QD (N = 15)): (40.0) % | Any Aes, n subjects (20 mg QD (N = 15)): 6 | Any TEAEs by maximum severity: Mild, % of subjects (20 mg QD (N = 15)): (40.0) % | Any TEAEs by maximum severity: Mild, n subjects (20 mg QD (N = 15)): 6 | Any TEAEs by maximum severity: Moderate, % of subjects (20 mg QD (N = 15)): (0.0) % | Any TEAEs by maximum severity: Moderate, n subjects (20 mg QD (N = 15)): 0 | Any TEAEs by maximum severity: Severe, % of subjects (20 mg QD (N = 15)): (0.0) % | Any TEAEs by maximum severity: Severe, n subjects (20 mg QD (N = 15)): 0 | Any TEAEs leading to death, % of subjects (20 mg QD (N = 15)): (0.0) % | Any TEAEs leading to death, n subjects (20 mg QD (N = 15)): 0 | Any TEAEs leading to discontinuation, % of subjects (20 mg QD (N = 15)): (0.0) % | Any TEAEs leading to discontinuation, n subjects (20 mg QD (N = 15)): 0 | Any TEAEs, % of subjects (20 mg QD (N = 15)): 40.0% | Any TEAEs, e (number of events) (20 mg QD (N = 15)): 8 | Any TEAEs, n subjects (20 mg QD (N = 15)): 6 | Any serious TEAEs, % of subjects (20 mg QD (N = 15)): (0.0) % | Any serious TEAEs, n subjects (20 mg QD (N = 15)): 0 | Any study drug-related TEAEs by maximum severity: Mild, % of subjects (20 mg QD (N = 15)): (26.7) % | Any study drug-related TEAEs by maximum severity: Mild, n subjects (20 mg QD (N = 15)): 4 | Any study drug-related TEAEs by maximum severity: Moderate, % of subjects (20 mg QD (N = 15)): (0.0) % | Any study drug-related TEAEs by maximum severity: Moderate, n subjects (20 mg QD (N = 15)): 0 | Any study drug-related TEAEs by maximum severity: Severe, % of subjects (20 mg QD (N = 15)): (0.0) % | Any study drug-related TEAEs by maximum severity: Severe, n subjects (20 mg QD (N = 15)): 0 | Any study drug-related TEAEs leading to discontinuation, % of subjects (20 mg QD (N = 15)): (0.0) % | Any study drug-related TEAEs leading to discontinuation, n subjects (20 mg QD (N = 15)): 0 | Any study drug-related TEAEs, % of subjects (20 mg QD (N = 15)): (26.7) % | Any study drug-related TEAEs, n subjects (20 mg QD (N = 15)): 4 | Any study drug-related serious TEAEs, % of subjects (20 mg QD (N = 15)): (0.0) % | Any study drug-related serious TEAEs, n subjects (20 mg QD (N = 15)): 0 | subjects who experienced a TEAE (20 mg QD): 6 (40.0%) subjects (%) | severity of study drug-related TEAEs (all dose groups): mild in severity | deaths, serious TEAEs, discontinuations due to a TEAE (all dose groups, 14 days): no deaths, serious TEAEs, or discontinuations due to a TEAE | changes from baseline in laboratory parameters (over treatment period): no meaningful changes from baseline
